Data: paper PMC3124071 (Journal of medicinal chemistry, 2011)

How the values were obtained:
[1] = urate-lowering therapy ref 6; cited from earlier work
[2] = oral; 7 (100 mg/kg) versus 4 (300 mg/day) or 5 (1000 mg/day) ref 22; cited from earlier work
[3] = biological target: T1, human uric acid transporter 1 (hURAT1; SLC22A12) (Homo sapiens, UniProt Q96S37); assay: 14C-uric acid uptake inhibition in Xenopus oocytes expressing hURAT1; assay type: cell-based; details: for 14C-urate transport inhibition (in words): test compound at 50 μM
T1 sequence (Q96S37 1-553): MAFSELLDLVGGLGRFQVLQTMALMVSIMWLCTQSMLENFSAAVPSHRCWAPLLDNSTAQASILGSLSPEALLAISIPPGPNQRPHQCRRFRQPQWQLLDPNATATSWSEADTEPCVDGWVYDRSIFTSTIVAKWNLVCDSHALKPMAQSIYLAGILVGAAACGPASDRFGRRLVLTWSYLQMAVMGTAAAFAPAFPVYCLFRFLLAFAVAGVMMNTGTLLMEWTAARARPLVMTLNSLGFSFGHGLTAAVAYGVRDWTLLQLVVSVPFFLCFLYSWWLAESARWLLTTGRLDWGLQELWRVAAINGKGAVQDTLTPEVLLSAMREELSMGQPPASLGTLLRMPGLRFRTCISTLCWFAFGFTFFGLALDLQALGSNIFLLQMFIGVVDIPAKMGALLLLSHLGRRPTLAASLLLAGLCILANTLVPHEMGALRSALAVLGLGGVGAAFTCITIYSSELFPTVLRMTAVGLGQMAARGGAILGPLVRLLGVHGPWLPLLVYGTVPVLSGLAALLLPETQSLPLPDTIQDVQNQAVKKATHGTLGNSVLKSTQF

Row | Structure (SMILES) | IC50 [3] | 14C-urate transport inhibition (in words) [3] | other results
1 | Oc1ncnc2[nH]ncc12 [Compound 3, allopurinol] |  |  | patients able to meet treatment goals [1]: about 40%
2 | CCc1oc2ccccc2c1C(=O)c1cc(Br)c(O)c(Br)c1 [Compound 7, (3,5-dibromo-4-hydroxyphenyl)(2-ethylbenzofuran-3-yl)methanone] |  |  | physiological effect (lowers urate level) compared with 4 and 5 [2]: greater physiological effect
3 | CCc1oc2ccccc2c1C(=O)c1ccc(OC)cc1 [Compound 12, (2-ethylbenzofuran-3-yl)(4-methoxyphenyl)methanone] | > 50000 nM | weak-to-no | 
4 | CCc1oc2ccc(OC)cc2c1C(=O)c1ccc(OC)cc1 [Compound 14, (2-ethyl-5-methoxybenzofuran-3-yl)(4-methoxyphenyl)methanone] |  | weak inhibition | 
5 | CCc1oc2c(OC)cccc2c1C(=O)c1ccc(OC)cc1 [Compound 19, (2-ethyl-7-methoxybenzofuran-3-yl)(4-methoxyphenyl)methanone] |  | weak inhibition | 
6 | CCc1oc2cc(OC)c(Br)cc2c1C(=O)c1cc(Br)c(O)c(Br)c1 [Compound 46, (5-bromo-2-ethyl-6-methoxybenzofuran-3-yl)(3,5-dibromo-4-hydroxyphenyl)methanone] | 1650 ± 120 nM |  | inhibition at 50 µM ([3]; read-out: % Inhibition @ 50 μM): 98.1 ± 0.2%
